Data published in US10988433B2, “Cyclohexyl GPR40 agonists for the treatment of type II diabetes” (Janssen Pharmaceutica NV, priority 2016, dated 2021).

Columns and labels:
[1] = molecular target: T1, human GPR40 (Homo sapiens, UniProt O14842); assay: GPR40 calcium flux assay, HEK293 cells stably expressing human GPR40; type: cell-based; conditions: transfected HEK293 cells stably expressing human GPR40, Fluo 8 dye, read-out: hGPR40 Ca2+ Assay EC50
T1 construct: expressed in transfected cells
Protocol: (§1) Compounds were tested in a calcium flux assay using transfected HEK293 cells stably expressing either human GPR40 or rat GPR40. Human GPR40 expressing cells were cultured in DMEM-High Glucose media supplemented with 10% fetal bovine serum, 1×L-Glutamine, 1×Penicillin/Streptomycin and 500 μg/mL G418. Rat GPR40 expressing cells were cultured in DMEM-High Glucose media supplemented with 10% fetal bovine serum and 1 μg/mL puromycin. Cells were plated into poly-D-lysine coated 384-well plates and cultured overnight in a 37° C. humidified tissue culture incubator under 5% CO2/[…] atmosphere. On the day of the experiment, the culture media was replaced with assay buffer (HBSS, 20 mM HEPES, 0.1% BSA) and the cells incubated at 37° C. for 1 h. Calcium-sensitive fluorescent dye (Fluo 8 No-Wash Calcium Dye, ABD Bioquest) was then added and the cells incubated for another 30 min at 37° C. followed by 15 min at room temperature while protected from the light. The cell plate and a plate of diluted compounds of Formula (I) were loaded into a fluorescent plate reader that added compounds onto the cells while measuring the fluorescence intensity of each well. The plate reader recorded fluorescence intensity at 1 second intervals for 8 min and provided the data for analysis in an Excel format. EC50 values were calculated using Prism (GraphPad) software.

[2] = molecular target: T2, rat GPR40 (Rattus norvegicus, UniProt Q8K3T4); assay: GPR40 calcium flux assay, HEK293 cells stably expressing rat GPR40; type: cell-based; conditions: transfected HEK293 cells stably expressing rat GPR40, Fluo 8 dye, read-out: rGPR40 Ca2+ Assay EC50
T2 construct: expressed in transfected cells
Protocol: as §1

T2 sequence (Q8K3T4 whole entry): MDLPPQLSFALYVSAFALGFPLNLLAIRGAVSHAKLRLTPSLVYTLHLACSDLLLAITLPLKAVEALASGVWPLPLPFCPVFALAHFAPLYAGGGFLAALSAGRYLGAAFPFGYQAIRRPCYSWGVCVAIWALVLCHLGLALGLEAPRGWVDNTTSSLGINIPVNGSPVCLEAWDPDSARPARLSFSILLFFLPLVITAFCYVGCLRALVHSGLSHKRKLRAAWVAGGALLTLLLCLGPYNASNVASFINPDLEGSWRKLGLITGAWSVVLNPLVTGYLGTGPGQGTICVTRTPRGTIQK
T1 sequence (O14842 whole entry): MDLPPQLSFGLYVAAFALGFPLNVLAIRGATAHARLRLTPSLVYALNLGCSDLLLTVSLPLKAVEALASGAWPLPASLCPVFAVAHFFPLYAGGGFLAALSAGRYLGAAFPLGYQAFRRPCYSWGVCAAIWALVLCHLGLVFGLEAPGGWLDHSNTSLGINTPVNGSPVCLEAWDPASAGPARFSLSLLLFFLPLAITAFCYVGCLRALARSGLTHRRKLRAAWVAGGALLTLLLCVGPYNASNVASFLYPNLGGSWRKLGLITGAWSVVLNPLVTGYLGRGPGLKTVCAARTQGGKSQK

Row | EC50 [1] | EC50 [2] | SMILES
1 | 13 nM | 28 nM | COc1ccc(F)c([C@H]2CC[C@H](COc3cc([C@H](C4CC4)C(C)(F)C(=O)O)ccn3)CC2)c1 (stereo partly drawn) [Cpd 79, (3S)-3-Cyclopropyl-2-fluoro-3-(2-(((1r,4S)-4-(2-fluoro-5-methoxyphenyl)cyclohexyl)methoxy)pyridin-4-yl)-2-methylpropanoic acid]
2 | 1.7 nM | 9.2 nM | COc1ccc(F)c([C@H]2CC[C@H](CCc3cccc([C@@H](CC(=O)O)C4CC4)c3)CC2)c1 [Cpd 36, (S)-3-Cyclopropyl-3-(3-(2-((1r,4R)-4-(2-fluoro-5-methoxyphenyl)cyclohexyl)ethyl)phenyl) propanoic acid]
3 | 1.88 nM | 2.48 nM | COc1ccc(F)c([C@H]2CC[C@H](/C=C/c3cccc([C@H](C4CC4)C(C)(F)C(=O)O)c3)CC2)c1 (stereo partly drawn) [Cpd 72, (3S)-3-Cyclopropyl-2-fluoro-3-(3-((E)-2-((1r,4S)-4-(2-fluoro-5-methoxyphenyl)cyclohexyl)vinyl)phenyl)-2-methylpropanoic acid]
4 | 26.9 nM | 76 nM | COc1cc([C@H]2CC[C@@H](COc3cccc([C@@H](CC(=O)O)C4CC4)c3)CC2)c(F)cn1 [Cpd 10, (S)-3-Cyclopropyl-3-(3-(((1s,4R)-4-(5-fluoro-2-methoxypyridin-4-yl)cyclohexyl)methoxy)phenyl)propanoic acid]
5 | 0.22 nM | 0.46 nM | COc1ccc(F)c([C@H]2CC[C@H](CCc3cccc([C@H](C4CC4)C(C)(F)C(=O)O)c3)CC2)c1 (stereo partly drawn) [Cpd 73, (3S)-3-Cyclopropyl-2-fluoro-3-(3-(2-((1r,4R)-4-(2-fluoro-5-methoxyphenyl)cyclohexyl)ethyl)phenyl)-2-methylpropanoic acid]
6 | 14.1 nM | 16.2 nM | C[C@](F)(C(=O)O)[C@H](c1cccc(OC[C@H]2CC[C@H](c3cc(OC(F)(F)F)ccc3F)CC2)c1)C1CC1 [Cpd 74, (2R,3S)-3-Cyclopropyl-2-fluoro-3-(3-(((1r,4S)-4-(2-fluoro-5-(trifluoromethoxy)phenyl)cyclohexyl)methoxy)phenyl)-2-methylpropanoic acid]
7 | 8.4 nM | 20.7 nM | COc1cc([C@H]2CC[C@H](COc3cc([C@H](CC(=O)O)C4CC4)ccn3)CC2)c(F)cn1 [Cpd 24, (R)-3-Cyclopropyl-3-(2-(((1r,4R)-4-(5-fluoro-2-methoxypyridin-4-yl)cyclohexyl)methoxy)pyridin-4-yl)propanoic acid]
8 | 0.59 nM | 1.75 nM | CCc1ccc(Cl)c(C2CCC(COc3cccc([C@H](C4CC4)C(C)(F)C(=O)O)c3)CC2)c1 (stereo partly drawn) [Cpd 65, (3S)-3-(3-((4-(2-Chloro-5-ethylphenyl)cyclohexyl)methoxy)phenyl)-3-cyclopropyl-2-fluoro-2-methylpropanoic acid]
9 | 17.6 nM | 51.9 nM | COc1cc([C@H]2CC[C@H](COc3cncc(C(CC(=O)O)C4CC4)c3)CC2)c(F)cn1 (some centres unmarked) [Cpd 22, 3-Cyclopropyl-3-(5-(((1r,4r)-4-(5-fluoro-2-methoxypyridin-4-yl)cyclohexyl)methoxy)pyridin-3-yl)propanoic acid]
10 | 0.19 nM | 0.56 nM | COc1ccc(Cl)c(C2CCC(COc3cccc([C@H](C4CC4)[C@@](C)(F)C(=O)O)c3)CC2)c1 (stereo partly drawn) [Cpd 64, (2R,3S)-3-(3-((4-(2-Chloro-5-methoxyphenyl)cyclohexyl)methoxy)phenyl)-3-cyclopropyl-2-fluoro-2-methylpropanoic acid]
11 | 1.72 nM | 10.4 nM | COc1ccc(F)c([C@H]2CC[C@H](CNc3cccc([C@H](C4CC4)C(C)(F)C(=O)O)c3)CC2)c1 (stereo partly drawn) [Cpd 77, (3S)-3-Cyclopropyl-2-fluoro-3-(3-((((1r,4S)-4-(2-fluoro-5-methoxyphenyl)cyclohexyl)methyl)amino)phenyl)-2-methylpropanoic acid]
12 | 0.7 nM | 2.6 nM | COc1ccc(F)c([C@H]2CC[C@H](COc3cc(C(CC(=O)O)C4CC4)ccn3)CC2)c1 (some centres unmarked) [Cpd 4, 3-Cyclopropyl-3-(2-(((1r,4r)-4-(2-fluoro-5-methoxyphenyl)cyclohexyl)methoxy)pyridin-4-yl) propanoic acid]
13 | 1840 nM | 5320 nM | COc1ccc(F)c([C@H]2CC[C@@H](COc3ccnc(C(CC(=O)O)C4CC4)c3)CC2)c1 (some centres unmarked) [Cpd 35, 3-Cyclopropyl-3-(4-(((1s,4s)-4-(2-fluoro-5-methoxyphenyl)cyclohexyl)methoxy)pyridin-2-yl)propanoic acid]
14 | 9.9 nM | 40.7 nM | COc1ccc(F)c([C@]2(F)CC[C@@H](COc3cccc([C@@H](CC(=O)O)C4CC4)c3)CC2)c1 [Cpd 20, (S)-3-Cyclopropyl-3-(3-(((1s,4R)-4-fluoro-4-(2-fluoro-5-methoxyphenyl)cyclohexyl)methoxy)phenyl)propanoic acid]
15 | 32.7 nM | 143 nM | COc1ccc(F)c([C@H]2CC[C@H](COc3cccc(C(CC(=O)O)C4CC4)n3)CC2)c1 (mixture of isomers) [Cpd 13, 3-Cyclopropyl-3-(6-(((1r,4r)-4-(2-fluoro-5-methoxyphenyl)cyclohexyl)methoxy)pyridin-2-yl)propanoic acid]
16 | 12 nM | 35.3 nM | COc1ccc(F)c([C@H]2CC[C@H](COc3cncc(C(CC(=O)O)C4CC4)c3)CC2)c1 (some centres unmarked) [Cpd 21, 3-Cyclopropyl-3-(5-(((1r,4r)-4-(2-fluoro-5-methoxyphenyl)cyclohexyl)methoxy)pyridin-3-yl)propanoic acid]
17 | 0.5 nM | 2.8 nM | COc1cc([C@H]2CC[C@H](COc3cccc([C@@H](CC(=O)O)C4CC4)c3)CC2)c(F)cn1 [Cpd 9, (S)-3-Cyclopropyl-3-(3-(((1r,4S)-4-(5-fluoro-2-methoxypyridin-4-yl)cyclohexyl)methoxy)phenyl)propanoic acid]
18 | 2.1 nM | 18.4 nM | COc1ccc(F)c([C@]2(OC)CC[C@@H](COc3cccc([C@@H](CC(=O)O)C4CC4)c3)CC2)c1 [Cpd 11, (S)-3-Cyclopropyl-3-(3-(((1s,4R)-4-(2-fluoro-5-methoxyphenyl)-4-methoxycyclohexyl)methoxy)phenyl)propanoic acid]
19 | 5800 nM | > 10000 nM | COc1cncc(C2CCC(COc3cc([C@@H](CC(=O)O)C4CC4)ccn3)CC2)n1 (stereo partly drawn) [Cpd 46, (S)-3-Cyclopropyl-3-(2-((4-(6-methoxypyrazin-2-yl)cyclohexyl)methoxy)pyridin-4-yl)propanoic acid]

Row | SMILES | EC50 [1] | EC50 [2]
20 | COc1ccc(F)c([C@H]2CC[C@H](COc3cccc([C@H](C4CC4)[C@](C)(F)C(=O)O)c3)CC2)c1 [Cpd 60, (2S,3S)-3-Cyclopropyl-2-fluoro-3-(3-(((1r,4S)-4-(2-fluoro-5-methoxyphenyl)cyclohexyl)methoxy)phenyl)-2-methylpropanoic acid] | 6.05 nM | 6.88 nM
21 | COc1ccc(F)c([C@H]2CC[C@H](COc3cccc([C@H](C4CC4)C(C)C(=O)O)c3)CC2)c1 (single isomer, unassigned) [Cpd 51] | 2.2 nM | 4.9 nM
22 | COc1ccc(F)c([C@H]2CC[C@@H](COc3cccc([C@H](C4CC4)[C@H](C)C(=O)O)c3)CC2)c1 [Cpd 53, (2S,3R)-3-cyclopropyl-3-(3-(((1s,4S)-4-(2-fluoro-5-methoxyphenyl)cyclohexyl)methoxy)phenyl)-2-methylpropanoic acid] | 2 nM | 7.7 nM
